In PubChem BioAssay AID248 (DTP/NCI, 2004):
Where “and” joins values, the source holds several entries; their conditions need not be identical. Equal values may be shown once. Toxic doses and inconclusive results are not listed. No stated cut-off is given here; in the data, active means T/C of 150% or more; inactive means T/C below 125%.

System: L1210 leukemia ip in BDF1 mice, survival T/C
Assay: NCI In Vivo Anticancer Drug Screen. Data for tumor model L1210 Leukemia (intraperitoneal) in B6D2F1 (BDF1) mice
Conditions: endpoint: mean survival time, higher = longer survival
Method in brief: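 Read-out is survival time, reported as the treated-group measurement over the vehicle-control measurement.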

[1] = dose: 75.0 mg/kg/injection, schedule: Q01DX001 (ip), vehicle: saline
[2] = dose: 150.0 mg/kg/injection, schedule: Q01DX001 (ip), vehicle: saline
[3] = dose: 300.0 mg/kg/injection, schedule: Q01DX001 (ip), vehicle: saline
[4] = dose: 100.0 mg/kg/injection, schedule: Q04DX002 (ip), vehicle: Klucel (hydroxypropylcellulose) (HPC)
[5] = dose: 200.0 mg/kg/injection, schedule: Q04DX002 (ip), vehicle: Klucel (hydroxypropylcellulose) (HPC)
[6] = dose: 400.0 mg/kg/injection, schedule: Q04DX002 (ip), vehicle: Klucel (hydroxypropylcellulose) (HPC)
[7] = dose: 100.0 mg/kg/injection, schedule: Q04DX003 (ip), vehicle: saline with Tween-80
[8] = dose: 200.0 mg/kg/injection, schedule: Q04DX003 (ip), vehicle: saline with Tween-80
[9] = dose: 400.0 mg/kg/injection, schedule: Q04DX003 (ip), vehicle: saline with Tween-80
[10] = dose: 50.0 mg/kg/injection, schedule: Q04DX003 (ip), vehicle: Klucel (hydroxypropylcellulose) (HPC)
[11] = dose: 100.0 mg/kg/injection, schedule: Q04DX003 (ip), vehicle: Klucel (hydroxypropylcellulose) (HPC)
[12] = dose: 100.0 mg/kg/injection, schedule: Q01DX001 (ip), vehicle: Klucel (hydroxypropylcellulose) (HPC)
[13] = dose: 200.0 mg/kg/injection, schedule: Q01DX001 (ip), vehicle: Klucel (hydroxypropylcellulose) (HPC)
[14] = dose: 400.0 mg/kg/injection, schedule: Q01DX001 (ip), vehicle: Klucel (hydroxypropylcellulose) (HPC)
[15] = dose: 100.0 mg/kg/injection, schedule: Q01DX009 (ip), vehicle: Klucel (hydroxypropylcellulose) (HPC)
[16] = dose: 200.0 mg/kg/injection, schedule: Q01DX009 (ip), vehicle: Klucel (hydroxypropylcellulose) (HPC)
[17] = dose: 200.0 mg/kg/injection, schedule: Q04DX003 (ip), vehicle: Klucel (hydroxypropylcellulose) (HPC)
[18] = dose: 400.0 mg/kg/injection, schedule: Q01DX009 (ip), vehicle: Klucel (hydroxypropylcellulose) (HPC)
[19] = dose: 400.0 mg/kg/injection, schedule: Q04DX003 (ip), vehicle: Klucel (hydroxypropylcellulose) (HPC)

Measured: T/C

ClC1=C2C=CC=CC2C(Cl)(c2ccccc2)C2C1=C(Cl)c1ccccc1C2(Cl)c1ccccc1 (stereo not given)
inactive: [1] 95 % of control | [2] 97 % of control | [3] 90 % of control

CCOC(=O)Cc1nc2ccc(C)cc2[nH]1
inactive: [4] 100 % of control | [5] 100 % of control | [6] 115 % of control

O=C1c2ccccc2C(=O)N1C/C(Cl)=C/Cl
inactive: dose: 100.0 mg/kg/injection, schedule: Q01DX009 (ip), vehicle: saline with Tween-80 92 % of control | [7] 97 % of control | dose: 200.0 mg/kg/injection, schedule: Q01DX009 (ip), vehicle: saline with Tween-80 93 % of control | [8] 93 % of control | dose: 400.0 mg/kg/injection, schedule: Q01DX009 (ip), vehicle: saline with Tween-80 91 % of control | [9] 92 % of control

NC1CCC(CC23CC4CC(CC(C4)C2)C3)CC1 (stereo not given)
inactive: dose: 25.0 mg/kg/injection, schedule: Q04DX003 (ip), vehicle: Klucel (hydroxypropylcellulose) (HPC) 110 % of control | [10] 102 % of control | [11] 94 % of control and 101 % of control

CCOC(=O)C1(C(C)C)OC2(O)CCCCN2C1=O (stereo not given)
inactive: dose: 12.5 mg/kg/injection, schedule: Q04DX003 (ip), vehicle: alcohol 106 % of control | dose: 25.0 mg/kg/injection, schedule: Q04DX003 (ip), vehicle: alcohol 104 % of control | dose: 50.0 mg/kg/injection, schedule: Q04DX003 (ip), vehicle: alcohol 113 % of control | dose: 100.0 mg/kg/injection, schedule: Q04DX003 (ip), vehicle: alcohol 101 % of control

COC(=O)c1ccc(Cl)cc1OCC(=O)Nc1ccccc1
inactive: [12] 97 % of control | [13] 103 % of control | [14] 93 % of control

Cc1ccc(S(=O)(=O)N=S(Cc2ccccc2)Cc2ccccc2)cc1
inactive: dose: 50.0 mg/kg/injection, schedule: Q01DX001 (ip), vehicle: saline sonified 103 % of control | dose: 100.0 mg/kg/injection, schedule: Q01DX001 (ip), vehicle: saline sonified 108 % of control | dose: 200.0 mg/kg/injection, schedule: Q01DX001 (ip), vehicle: saline sonified 95 % of control

O=C(NC(=O)C(Cl)Cl)Nc1cccc2c1Cc1ccccc1-2
inactive: [10] 105 % of control | [12] 100 % of control | [15] 98 % of control | [11] 96 % of control and 101 % of control | [13] 89 % of control | [16] 93 % of control | [17] 100 % of control | [14] 94 % of control | [18] 93 % of control | [19] 90 % of control and 92 % of control

CCOC(=O)C1C(=O)C(CN(CCCl)CCCl)C(=O)C(C(=O)OCC)C1c1cc(OC)c(OC)c(OC)c1 (stereo not given)
inactive: [4] 114 % of control | [5] 102 % of control | [6] 111 % of control

O=COc1ccc([N+](=O)[O-])cc1
inactive: dose: 25.0 mg/kg/injection, schedule: Q01DX009 (ip), vehicle: saline 98 % of control | dose: 50.0 mg/kg/injection, schedule: Q01DX009 (ip), vehicle: saline 95 % of control | dose: 100.0 mg/kg/injection, schedule: Q01DX009 (ip), vehicle: saline 98 % of control | dose: 100.0 mg/kg/injection, schedule: Q04DX003 (ip), vehicle: saline 101 % of control

Clc1ccc(OCCOc2ccc(Cl)cc2)cc1
inactive: [7] 95 % of control | [8] 92 % of control | [9] 106 % of control

CCCCCCCCCOc1ccc2ccccc2c1
inactive: [7] 102 % of control | [8] 97 % of control | [9] 92 % of control

Cn1ccc2cc(Br)ccc21
inactive: [7] 102 % of control | [8] 101 % of control | [9] 101 % of control

COc1ccc(CN=C(N)CSS(=O)(=O)O)cc1
inactive: dose: 12.5 mg/kg/injection, schedule: Q04DX002 (ip), vehicle: Klucel (hydroxypropylcellulose) (HPC) 97 % of control | dose: 25.0 mg/kg/injection, schedule: Q04DX002 (ip), vehicle: Klucel (hydroxypropylcellulose) (HPC) 97 % of control

CN(C)c1ccc(N=O)cc1
inactive: dose: 0.78 mg/kg/injection, schedule: Q04DX002 (ip), vehicle: saline 89 % of control | dose: 1.56 mg/kg/injection, schedule: Q01DX009 (ip), vehicle: saline 93 % of control | dose: 1.56 mg/kg/injection, schedule: Q04DX002 (ip), vehicle: saline 95 % of control | dose: 3.13 mg/kg/injection, schedule: Q01DX009 (ip), vehicle: saline 93 % of control | dose: 3.13 mg/kg/injection, schedule: Q04DX002 (ip), vehicle: saline 95 % of control | dose: 6.25 mg/kg/injection, schedule: Q01DX009 (ip), vehicle: saline 97 % of control | dose: 6.25 mg/kg/injection, schedule: Q04DX002 (ip), vehicle: saline 100 % of control

COc1c(NC(=O)Nc2ccccc2C)cccc1[N+](=O)[O-]
inactive: dose: 6.25 mg/kg/injection, schedule: Q01DX009 (ip), vehicle: saline with Tween-80 100 % of control | dose: 6.25 mg/kg/injection, schedule: Q04DX002 (ip), vehicle: saline with Tween-80 96 % of control | dose: 12.5 mg/kg/injection, schedule: Q01DX009 (ip), vehicle: saline with Tween-80 92 % of control | dose: 12.5 mg/kg/injection, schedule: Q04DX002 (ip), vehicle: saline with Tween-80 93 % of control | dose: 25.0 mg/kg/injection, schedule: Q01DX009 (ip), vehicle: saline with Tween-80 88 % of control | dose: 25.0 mg/kg/injection, schedule: Q04DX002 (ip), vehicle: saline with Tween-80 100 % of control

O=[N+]([O-])c1ccc2c(c1)P(=O)(O)c1cc([N+](=O)[O-])ccc1-2
inactive: [1] 96 % of control | [2] 95 % of control | [3] 98 % of control

O=C(O)c1cc(I)ccc1I
inactive: [15] 93 % of control | [16] 104 % of control | [18] 103 % of control

c1ccc(CN2CCCCc3ccccc32)cc1
inactive: [7] 93 % of control | [8] 88 % of control

CC(=O)Nc1cc(C(C)=O)ccc1O
inactive: [11] 106 % of control | [17] 98 % of control | [19] 103 % of control

COC(=O)C(CSSCC(NC(=O)c1ccccc1)C(=O)OC)NC(=O)c1ccccc1 (stereo not given)
inactive: dose: 50.0 mg/kg/injection, schedule: Q01DX001 (ip), vehicle: saline 98 % of control | dose: 100.0 mg/kg/injection, schedule: Q01DX001 (ip), vehicle: saline 114 % of control | dose: 200.0 mg/kg/injection, schedule: Q01DX001 (ip), vehicle: saline 97 % of control

CC(C)OC(=O)Nc1ccc(Cl)cc1Cl
inactive: [11] 97 % of control | [17] 108 % of control | [19] 108 % of control

O=C1C=Cc2ccc3c4c(ccc1c24)C=CC3=O
inactive: dose: 100.0 mg/kg/injection, schedule: Q04DX003 (ip), vehicle: acetone 98 % of control | dose: 200.0 mg/kg/injection, schedule: Q04DX003 (ip), vehicle: acetone 91 % of control
